Measurements: article PMC8564858, “Flavonoid-based inhibitors of the Phi-class glutathione transferase from black-grass to combat multiple herbicide resistance” (Organic & Biomolecular Chemistry, 2021)

Experiments:
[1] = system: HS black-grass (Rothamsted); assay: Petri-dish seedling assay with pendimethalin; assay type: in vivo, Alopecurus myosuroides
MHR black-grass (Peldon) = assay: Petri-dish seedling assay with pendimethalin; assay type: in vivo, Alopecurus myosuroides; conditions: for Percentage of normal shoot 14 d after treatment: Peldon-MHR
AmGSTF1 [2] = assay: CDNB assay: inhibition of AmGSTF1-catalysed glutathionylation of CDNB; assay type: biochemical, Alopecurus myosuroides; conditions: for CDNB Assay % Inhibition: three replicate measurements
AmGSTF1 [3] = assay: Thermal shift assay; assay type: binding, Alopecurus myosuroides; conditions: difference in melting temperature compared to no ligand
[4] = Aqueous solubility (qualitative); assay type: physicochemical
AmGSTF1 [5] = assay: Ligand fishing with strep-tagged AmGSTF1 immobilised on StrepTactin column; assay type: binding, Alopecurus myosuroides; conditions: ligand cocktail, each at 100 µM
[6] = system: MHR in black-grass plants; assay: Preliminary spray trial with pinoxaden; assay type: in vivo, Alopecurus myosuroides; conditions: black-grass plants exposed to the herbicide pinoxaden
wheat = assay: Preliminary spray trial, companion crop phytotoxicity; assay type: in vivo
wildtype AmGSTF1 = assay type: biochemical, Alopecurus myosuroides; conditions: 100 µM, 60 min at 20 °C, diluted 1:100, activity towards CDNB
AmGSTF1 [7] = assay: Isothermal titration calorimetry; assay type: binding, Alopecurus myosuroides
Description: Coot and reciprocal space refinement using Refmac. Further experimental detail is summarised in
Molecular docking was performed using the GOLD package with CHEMPLP as the target fitness function
12. The structure of the AmGSTF1 in the tetragonal unit cell with both loops in their closed conformation
was used as a starting model for docking. The ligand (GS-NBF) was removed from the binding site. The
search space was defined by the position of the ligand in the cavity with a margin of 10 and 15 Å,
respectively. The ligands were built with Avogadro [XX]. In each case, the starting geometry minimized
using the MMFF94 forcefield [xx]. Each ligand was docked with 30 independent genetic algorithm using
the diverse solution settings in order to explore a maximum parameter space.
Isothermal Titration Calorimetry
AmGSTF1 was dialysed into HEPES buffer (pH 7.6) overnight at 3 °C and the concentration adjusted to
10 µM in a volume of 3 mL. The activity of the enzyme was calculated prior to use according to the
standard CDNB biochemical assay. A solution of the desired ligand (≥ 10 x protein concentration, 200
µL) was prepared in the same HEPES buffer as above. All samples were degassed for 5 minutes prior to
use using a thermovac at 24 °C. AmGSTF1 was incubated in the cell and the ligand in the syringe, […]
experiment run to completion or until no more titrant was available. The data obtained was analysed […]

MHR black-grass plants = assay: Spray assay on three-leaf stage plants with pendimethalin; assay type: in vivo, Alopecurus myosuroides; conditions: three-leaf stage (BBCH 13); 70 μM compound 55, 24 h prior to spray with 35 μM pendimethalin
AtGSTF8 = assay: CDNB assay on AtGSTF8 (selectivity); assay type: biochemical, A. thaliana
Description: Having established flavonoids as AmGSTF1 ligands with the potential to reverse the MHR phenotype, the scope for optimising their activity, selectivity, and physicochemical profile using synthetic modifications was explored. Using 5,7-dihydroxyflavone (chrysin, 2) as precursor (Fig. 3a), the synthesis of flavonoid derivatives with simple A-ring modifications were undertaken. Each compound was then assessed for its binding to the protein target using both thermal shift assays and by the inhibition of enzyme activity toward CDNB (Table S4 ^‡). The 2-methylchromen-4-one derivative 12 (Table S4; ^‡ entry 11) was synthesised to assess the effect of replacement of the aryl ring at the 2-position (B-ring) with a smaller group. […] Alternative 2-substituents, including amides 16, cyclic amines 17 and (hetero)arenes 18, each introduced from the corresponding carboxylic acid 13, thioether 14 and chloride 15 using standard acylation, SNAr and Pd-catalysed cross-coupling reactions (Fig. 3b). […] However, for these compounds, the assessment of activity was difficult due to their low solubility in aqueous solutions. […] To confirm if the binding observed with these synthetic analogues was specific to AmGSTF1, as determined by the inhibition of CDNB activity, the effect of this flavonoid series on an alternative well described phi class GST from A. thaliana (AtGSTF8), was investigated. […]

[8] = 70 uM compound 55 for 24 h prior to 5 ppm pendimethalin

SMILES | CDNB Assay % Inhibition (AmGSTF1 [2]; 10 µM compound) [%] | CDNB Assay % Inhibition (AmGSTF1 [2]; 100 µM compound) [%] | Thermal Shift Assay ∆Tm (AmGSTF1 [3]; 1 µM) | Thermal Shift Assay ∆Tm (AmGSTF1 [3]; 10 µM) | Thermal Shift Assay ∆Tm (AmGSTF1 [3]; 100 µM) | also measured
CCC(CC)Nc1c([N+](=O)[O-])cc(C)c(C)c1[N+](=O)[O-] [Pendimethalin, pendimethalin, reference compound] | – | – | – | – | – | Percentage of normal shoot 14 d after treatment ([1]; 5 ppm pendimethalin alone): 52%; Percentage of normal shoot 14 d after treatment (MHR black-grass (Peldon); 5 ppm pendimethalin alone): 82%
COc1cc(OC)c2c(=O)cc(-c3ccncc3)oc2c1 [18m] | 10 | 50 | 0.23 | 0.27 | 0.23 | –
CCCCCCCCCCCCC(Oc1cc(OC)cc2oc(-c3ccccc3)cc(=O)c12)C(=O)O (centres unmarked) [compound 46] | 90 | 100 | 0.20 | 0.73 | 1.43 | CDNB Assay % Inhibition (AmGSTF1 [2]; 1 µM compound): 75%
COc1cc(OC)c2c(=O)cc(-c3ncco3)oc2c1 [compound 20] | 11 | 64 | -0.10 | -0.17 | -0.23 | –
O=c1c(O)c(-c2ccc(O)c(O)c2)oc2cc(O)cc(O)c12 [compound 3, quercetin, reference compound] | 44 | 94 | – | – | – | Solubility in aqueous solutions (in words) [4]: high solubility
O=c1cc(-c2ccccc2)oc2ccc(O)cc12 [compound 4, reference compound] | – | 61 | 0.4 | 0.0 | -0.2 | –
COc1cc(OC)c2c(=O)cc(C(=O)Nc3ccccc3)oc2c1 [16a] | 26 | 49 | 0.17 | 0.03 | 0.03 | –
COc1cc(OC)c2c(=O)cc(-c3ccccc3C)oc2c1 [18j] | 9 | 36 | -0.13 | -0.03 | -0.03 | –
COc1cc(OC)c2c(=O)cc(-c3nccs3)oc2c1 [compound 23] | 23 | 83 | -0.40 | -0.47 | -0.50 | Solubility in aqueous solutions (in words) [4]: increased solubility
COc1cc(OC)c2c(=O)cc(N3CCCCC3)oc2c1 [17c] | 12 | 67 | 0.23 | 0.13 | 0.30 | –
O=c1cc(-c2ccc(O)cc2)oc2cc(O)cc(O)c12 [compound 1, apigenin] | 71 | 87 | – | – | – | Binding/retention by immobilised AmGSTF1 (AmGSTF1 [5]): selectively retained and bound; Synergistic effect counteracting MHR [6]: clear synergistic effect; Phytotoxic effect in companion crop (wheat): no adverse phytotoxic effect
NC(CCC(=O)NC(CSc1ccc([N+](=O)[O-])c2nonc12)C(=O)NCC(=O)O)C(=O)O (centres unmarked) [NBD-SG] | – | – | – | – | – | Inhibition vs. DMSO control (wildtype AmGSTF1): 43%; Mean specific activity (wildtype AmGSTF1; mean ± SD, n = 3): 11.2 ± 1.1 nmol s-1 mg-1 protein; Binding to AmGSTF1 by ITC (AmGSTF1 [7]): binding to AmGSTF1 confirmed
COc1cc(OC)c2c(=O)cc(-c3nnc(C)o3)oc2c1 [compound 19] | 8 | 53 | -0.10 | -0.17 | -0.27 | –
O=c1cc(-c2ccccc2)oc2ccccc12 [compound 7, reference compound] | – | 14 | 0.3 | 0.0 | -0.2 | –
COc1ccc(-c2cc(=O)c3c(OC)cc(OC)cc3o2)cc1 [18c] | 15 | 100 | 0.23 | 0.17 | 0.70 | –
COc1cc(OC)c2c(=O)cc(N3CCOCC3)oc2c1 [17b] | 0 | 37 | 0.06 | 0.23 | 0.20 | –
CCCCCCCCCCC(Oc1cc(O)cc2oc(-c3ccc(O)c(O)c3)c(O)c(=O)c12)C(=O)O (centres unmarked) [compound 55] | 96 | 100 | 0.20 | 2.17 | 1.10 | Inhibitory activity toward AmGSTF1 in the CDNB assay (in words) (AmGSTF1 [2]): excellent inhibitory activity; CDNB Assay % Inhibition (AmGSTF1 [2]; 1 µM compound): 70%; Percentage of normal shoot 14 d after treatment [1, 8]: 50%; Resistance to pendimethalin in MHR seedlings (MHR black-grass (Peldon); 70 μM compound 55, 24 h prior to 5 ppm pendimethalin, compared to untreated seedlings): reduced; Percentage of normal shoot 14 d after treatment (MHR black-grass (Peldon); [8]): 66%; Pendimethalin resistance in established MHR plants (MHR black-grass plants): reversed pendimethalin resistance; Selectivity toward AmGSTF1 as compared to AtGSTF8 (AtGSTF8): good selectivity; Solubility in aqueous solutions (in words) [4]: sufficient soluble
